# Laboratory results as given in patent publication US20240043427A1 (Gilead Sciences, Inc., priority 2020, published 2024).
# Assays:
# CD73 [1] = target: T1, CD73 (Homo sapiens (Human), UniProt P21589); format: biochemical; conditions: 1 mM NaH2PO4 in enzyme buffer, CD73 0.3 nM, AMP 15 uM
# CD73 [2] = target: T1, CD73; experiment: MDA-MB-231 Cell Based CD73 Activity Assay (DMEM); conditions: MDA-MB-231-GFP cells, DMEM medium with 10% human plasma, 200 uM AMP
# T1 sequence (P21589 27-574): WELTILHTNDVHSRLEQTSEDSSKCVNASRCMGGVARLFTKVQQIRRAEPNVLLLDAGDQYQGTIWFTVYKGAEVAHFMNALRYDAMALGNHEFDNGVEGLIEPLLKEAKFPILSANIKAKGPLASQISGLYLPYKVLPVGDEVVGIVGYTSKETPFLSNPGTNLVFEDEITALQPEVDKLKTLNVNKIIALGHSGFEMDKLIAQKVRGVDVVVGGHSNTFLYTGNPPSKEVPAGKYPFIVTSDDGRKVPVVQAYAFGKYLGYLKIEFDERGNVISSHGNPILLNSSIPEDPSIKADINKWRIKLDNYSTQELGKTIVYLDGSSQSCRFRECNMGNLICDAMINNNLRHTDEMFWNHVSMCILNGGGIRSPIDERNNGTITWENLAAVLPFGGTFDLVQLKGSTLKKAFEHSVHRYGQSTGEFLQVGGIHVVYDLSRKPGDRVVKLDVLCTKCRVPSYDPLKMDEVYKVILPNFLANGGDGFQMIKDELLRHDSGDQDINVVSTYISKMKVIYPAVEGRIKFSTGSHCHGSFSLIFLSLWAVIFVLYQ
Compound,IC50 (CD73 [1]),EC50 (CD73 [2])
"COC(=O)c1cccc(C2CN(c3cc(-c4c[nH]c(=O)[nH]c4=O)nn4ccnc34)C2)c1 [Example 263, Methyl 3-(1-(6-(2,4-dioxo-1,2,3,4-tetrahydropyrimidin-5-yl)imidazo[1,2-b]pyridazin-8-yl)azetidin-3-yl)benzoate]",10.7 nM,31.4 nM
"COC(=O)c1cccc(C2CCN(c3cc(-c4c[nH]c(=O)[nH]c4=O)nn4ccnc34)C2)c1 (centres unmarked) [Example 264, Methyl 3-(1-(6-(2,4-dioxo-1,2,3,4-tetrahydropyrimidin-5-yl)imidazo[1,2-b]pyridazin-8-yl)pyrrolidin-3-yl)benzoate]",5.59 nM,88 nM
"COC(=O)c1ccc(C2CCN(c3cc(-c4c[nH]c(=O)[nH]c4=O)nn4ccnc34)C2)cc1 (centres unmarked) [Example 265, Methyl 4-(1-(6-(2,4-dioxo-1,2,3,4-tetrahydropyrimidin-5-yl)imidazo[1,2-b]pyridazin-8-yl)pyrrolidin-3-yl)benzoate]",3.22 nM,77.9 nM
"O=c1[nH]cc(-c2cc(N3CC(F)(F)C4(CC4)C3)c3nncn3n2)c(=O)[nH]1 [Example 266, 5-(8-(7,7-difluoro-5-azaspiro[2.4]heptan-5-yl)-[1,2,4]triazolo[4,3-b]pyridazin-6-yl)pyrimidine-2,4(1H,3H)-dione]",1.93 nM,13.5 nM
"O=C(c1ccc(C2CN(c3cc(-c4c[nH]c(=O)[nH]c4=O)nn4ccnc34)C2)cc1)N1CC(F)(F)C1 [Example 267, 5-(8-(3-(4-(3,3-difluoroazetidine-1-carbonyl)phenyl)azetidin-1-yl)imidazo[1,2-b]pyridazin-6-yl)pyrimidine-2,4(1H,3H)-dione]",34.7 nM,66.6 nM
"O=C(c1cccc(C2CN(c3cc(-c4c[nH]c(=O)[nH]c4=O)nn4ccnc34)C2)c1)N1CC(F)(F)C1 [Example 268, 5-(8-(3-(3-(3,3-difluoroazetidine-1-carbonyl)phenyl)azetidin-1-yl)imidazo[1,2-b]pyridazin-6-yl)pyrimidine-2,4(1H,3H)-dione]",97 nM,135 nM
"CNC(=O)c1cccc(C2CCN(c3cc(-c4c[nH]c(=O)[nH]c4=O)nn4ccnc34)C2)c1 (centres unmarked) [Example 269, 3-(1-(6-(2,4-dioxo-1,2,3,4-tetrahydropyrimidin-5-yl)imidazo[1,2-b]pyridazin-8-yl)pyrrolidin-3-yl)-N-methylbenzamide]",3.62 nM,27 nM
"CNC(=O)c1ccc(C2CCN(c3cc(-c4c[nH]c(=O)[nH]c4=O)nn4ccnc34)C2)cc1 (centres unmarked) [Example 270, 4-(1-(6-(2,4-dioxo-1,2,3,4-tetrahydropyrimidin-5-yl)imidazo[1,2-b]pyridazin-8-yl)pyrrolidin-3-yl)-N-methylbenzamide]",1.13 nM,13.7 nM
"O=c1[nH]cc(-c2cc([C@H]3C[C@@H]3c3cnc(C(F)(F)F)nc3)c3nccn3n2)c(=O)[nH]1 [Example 272, 5-(8-((1S,2S)-2-(2-(trifluoromethyl)pyrimidin-5-yl)cyclopropyl)imidazo[1,2-b]pyridazin-6-yl)pyrimidine-2,4(1H,3H)-dione]",9.9 nM,72.6 nM
"O=c1[nH]cc(-c2cc([C@@H]3C[C@H]3c3cnc(C(F)(F)F)nc3)c3ncc(F)n3n2)c(=O)[nH]1 [Example 273, 5-(3-fluoro-8-((1R,2R)-2-(2-(trifluoromethyl)pyrimidin-5-yl)cyclopropyl)imidazo[1,2-b]pyridazin-6-yl)pyrimidine-2,4(1H,3H)-dione]",9.39 nM,58.1 nM
"O=c1[nH]cc(-c2cc(N3CCC4(CCOC4)C3)c3nccn3n2)c(=O)[nH]1 (centres unmarked) [Example 274, 5-(8-(2-oxa-7-azaspiro[4.4]nonan-7-yl)imidazo[1,2-b]pyridazin-6-yl)pyrimidine-2,4(1H,3H)-dione]",16.5 nM,39.4 nM
"O=c1[nH]cc(-c2cc(N3CCC4(CCOCC4)C3)c3nccn3n2)c(=O)[nH]1 [Example 275, 5-(8-(8-oxa-2-azaspiro[4.5]decan-2-yl)imidazo[1,2-b]pyridazin-6-yl)pyrimidine-2,4(1H,3H)-dione]",8.64 nM,36.2 nM
"N#Cc1ccc([C@H]2C[C@@H]2c2cc(-c3c[nH]c(=O)[nH]c3=O)nn3ccnc23)c(F)c1 [Example 279, 4-((1S,2S)-2-(6-(2,4-dioxo-1,2,3,4-tetrahydropyrimidin-5-yl)imidazo[1,2-b]pyridazin-8-yl)cyclopropyl)-3-fluorobenzonitrile]",1.07 nM,6.64 nM
"N#Cc1ccc([C@H]2C[C@@H]2c2cc(-c3c[nH]c(=O)[nH]c3=O)nn3c(F)cnc23)c(F)c1 [Example 310, 4-((1S,2S)-2-(6-(2,4-dioxo-1,2,3,4-tetrahydropyrimidin-5-yl)-3-fluoroimidazo[1,2-b]pyridazin-8-yl)cyclopropyl)-3-fluorobenzonitrile]",0.63 nM,3.4 nM

# The next lines start with the values.
IC50 (CD73 [1]),EC50 (CD73 [2]),Compound
6.64 nM,27.6 nM,"O=c1[nH]cc(-c2cc(N3CCC4(CCCC4)C3)c3nccn3n2)c(=O)[nH]1 [Example 315, 5-(8-(2-azaspiro[4.4]nonan-2-yl)imidazo[1,2-b]pyridazin-6-yl)pyrimidine-2,4(1H,3H)-dione]"
0.65 nM,1.21 nM,"O=c1[nH]cc(-c2cc([C@H]3C[C@@H]3c3ccc4c(cnn4CC(F)(F)F)c3)c3nccn3n2)c(=O)[nH]1 [Example 316, 5-(8-((1S,2S)-2-(1-(2,2,2-trifluoroethyl)-1H-indazol-5-yl)cyclopropyl)imidazo[1,2-b]pyridazin-6-yl)pyrimidine-2,4(1H,3H)-dione]"
1.01 nM,2 nM,"O=c1[nH]cc(-c2cc([C@H]3C[C@@H]3c3ccc4c(cnn4CC(F)(F)F)c3)c3ncc(F)n3n2)c(=O)[nH]1 [Example 317, 5-(3-fluoro-8-((1S,2S)-2-(1-(2,2,2-trifluoroethyl)-1H-indazol-5-yl)cyclopropyl)imidazo[1,2-b]pyridazin-6-yl)pyrimidine-2,4(1H,3H)-dione]"
0.43 nM,0.06 nM,"O=c1[nH]cc(-c2cc([C@H]3C[C@@H]3c3ccc4cnn(CC(F)(F)F)c4c3)c3nccn3n2)c(=O)[nH]1 [Example 318, 5-(8-((1S,2S)-2-(1-(2,2,2-trifluoroethyl)-1H-indazol-6-yl)cyclopropyl)imidazo[1,2-b]pyridazin-6-yl)pyrimidine-2,4(1H,3H)-dione]"
0.34 nM,0.07 nM,"O=c1[nH]cc(-c2cc([C@H]3C[C@@H]3c3ccc4cnn(CC(F)(F)F)c4c3)c3ncc(F)n3n2)c(=O)[nH]1 [Example 319, 5-(3-fluoro-8-((1S,2S)-2-(1-(2,2,2-trifluoroethyl)-1H-indazol-6-yl)cyclopropyl)imidazo[1,2-b]pyridazin-6-yl)pyrimidine-2,4(1H,3H)-dione]"
> 250 nM,1150 nM,"CC1(C)CN(c2cc(-c3c[nH]c(=O)[nH]c3=O)nn3ccnc23)CC(F)(F)C1 [Example 320, 5-(8-(3,3-difluoro-5,5-dimethylpiperidin-1-yl)imidazo[1,2-b]pyridazin-6-yl)pyrimidine-2,4(1H,3H)-dione]"
0.8 nM,0.07 nM,"O=c1[nH]cc(-c2cc([C@H]3C[C@@H]3c3ccc4ncn(CC(F)(F)F)c4c3)c3nccn3n2)c(=O)[nH]1 [Example 322, 5-(8-((1S,2S)-2-(1-(2,2,2-trifluoroethyl)-1H-benzo[d]imidazol-6-yl)cyclopropyl)imidazo[1,2-b]pyridazin-6-yl)pyrimidine-2,4(1H,3H)-dione]"
0.51 nM,0.06 nM,"O=c1[nH]cc(-c2cc([C@H]3C[C@@H]3c3ccc4ncn(CC(F)(F)F)c4c3)c3ncc(F)n3n2)c(=O)[nH]1 [Example 323, 5-(3-fluoro-8-((1S,2S)-2-(1-(2,2,2-trifluoroethyl)-1H-benzo[d]imidazol-6-yl)cyclopropyl)imidazo[1,2-b]pyridazin-6-yl)pyrimidine-2,4(1H,3H)-dione]"
1.7 nM,11.2 nM,"O=c1[nH]cc(-c2cc(N3CC(F)(F)C4(CCC4)C3)c3nccn3n2)c(=O)[nH]1 [Example 325, 5-(8-(8,8-difluoro-6-azaspiro[3.4]octan-6-yl)imidazo[1,2-b]pyridazin-6-yl)pyrimidine-2,4(1H,3H)-dione]"
3.68 nM,40.5 nM,"CC1(C)CN(c2cc(-c3c[nH]c(=O)[nH]c3=O)nn3cc(Cl)nc23)CC1(F)F [Example 328, 5-(2-chloro-8-(3,3-difluoro-4,4-dimethylpyrrolidin-1-yl)imidazo[1,2-b]pyridazin-6-yl)pyrimidine-2,4(1H,3H)-dione]"
0.64 nM,0.71 nM,"O=c1[nH]cc(-c2cc([C@H]3C[C@@H]3c3ccc4c(C(F)(F)F)nn(CC(F)(F)F)c4c3)c3ncc(F)n3n2)c(=O)[nH]1 [Example 329, 5-(3-fluoro-8-((1S,2S)-2-(1-(2,2,2-trifluoroethyl)-3-(trifluoromethyl)-1H-indazol-6-yl)cyclopropyl)imidazo[1,2-b]pyridazin-6-yl)pyrimidine-2,4(1H,3H)-dione]"
1.07 nM,0.51 nM,"O=c1[nH]cc(-c2cc(N3C[C@H](Oc4cc(C(F)(F)F)ccn4)C(F)(F)C3)c3nccn3n2)c(=O)[nH]1 [Example 330, (S)-5-(8-(3,3-difluoro-4-((4-(trifluoromethyl)pyridin-2-yl)oxy)pyrrolidin-1-yl)imidazo[1,2-b]pyridazin-6-yl)pyrimidine-2,4(1H,3H)-dione]"
16.2 nM,11.1 nM,"O=c1[nH]cc(-c2cc(N3C[C@@H](Oc4cc(C(F)(F)F)ccn4)C(F)(F)C3)c3nccn3n2)c(=O)[nH]1 [Example 331, (R)-5-(8-(3,3-difluoro-4-((4-(trifluoromethyl)pyridin-2-yl)oxy)pyrrolidin-1-yl)imidazo[1,2-b]pyridazin-6-yl)pyrimidine-2,4(1H,3H)-dione]"
8.61 nM,26.9 nM,"O=c1[nH]cc(-c2cc(N3C[C@@H](Oc4ccc(OC(F)F)cn4)C(F)(F)C3)c3nccn3n2)c(=O)[nH]1 [Example 332, (R)-5-(8-(4-((5-(difluoromethoxy)pyridin-2-yl)oxy)-3,3-difluoropyrrolidin-1-yl)imidazo[1,2-b]pyridazin-6-yl)pyrimidine-2,4(1H,3H)-dione]"
